Laboratory results taken from PubChem BioAssay (NCI).
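Cultured in 96-well plates, cells were exposed to test compound for 48 hours across five concentrations. GI50: concentration for 50% inhibition of growth. TGI: total growth inhibition.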

Tests used:
Experiment in all cases: growth of human tumour cells (NCI), 48 h
KM12 colon = test system: KM12 colon
CCRF-CEM leukemia = test system: CCRF-CEM leukemia
OVCAR-8 ovarian = test system: OVCAR-8 ovarian
HOP-92 NSCLC = test system: HOP-92 NSCLC
T-47D breast = test system: T-47D breast
A549 NSCLC = test system: A549 NSCLC
HOP-62 NSCLC = test system: HOP-62 NSCLC
SNB-19 CNS = test system: SNB-19 CNS
HT29 colon = test system: HT29 colon
SNB-75 CNS = test system: SNB-75 CNS

SMILES | GI50 (KM12 colon) [µM] | TGI (KM12 colon) [µM] | GI50 (CCRF-CEM leukemia) [µM] | TGI (CCRF-CEM leukemia) [µM] | GI50 (OVCAR-8 ovarian) [µM] | TGI (OVCAR-8 ovarian) [µM] | GI50 (HOP-92 NSCLC) [µM] | TGI (HOP-92 NSCLC) [µM] | GI50 (T-47D breast) [µM] | TGI (T-47D breast) [µM] | GI50 (A549 NSCLC) [µM] | TGI (A549 NSCLC) [µM] | GI50 (HOP-62 NSCLC) [µM] | TGI (HOP-62 NSCLC) [µM] | GI50 (SNB-19 CNS) [µM] | TGI (SNB-19 CNS) [µM] | GI50 (HT29 colon) [µM] | TGI (HT29 colon) [µM] | GI50 (SNB-75 CNS) [µM] | TGI (SNB-75 CNS) [µM]
CCC(CC)c1nc(Nc2ccc(C(=O)OC)cc2)c2ccccc2n1 | 8.01 | 18 | 6.64 | 48.9 | 12.9 | > 31.4 | 18.6 | > 26.4 | 7.88 | 17.5 | 10.2 | 27.2 | 10.4 | 21.6 | 8.07 | 15.2 | – | – | – | –
NC1=CC(=O)c2cccnc2C1=O | 3.28 | 13.1 | 1.19 | 4.88 | 1.66 | 4.2 | 1.71 | 3.39 | – | – | 3.84 | 15 | 1.32 | 2.77 | 1.84 | 3.88 | 3.48 | 14.6 | 1.21 | 2.58
O=C(COc1ccc(/C=C2\COc3ccccc3C2=O)cc1)Nc1nccs1 | 3.28 | 10.5 | 1.61 | 6.39 | 4.49 | 45.2 | – | – | 16.1 | 38.8 | 14.3 | 47.4 | 16.8 | 33.1 | 12.8 | 25.4 | 3.7 | 12.9 | 5.04 | 22
CC[C@@H]1[C@@H](C)O[C@@](O)([C@@H](C)[C@H](O)[C@H](C)[C@H]2OC(=O)/C=C/C=C/[C@H](C)[C@@H]([C@@H](C)[C@@H](O)[C@H](C)[C@@]3(O)C[C@@H](O[C@H]4C[C@@H](O)[C@H](O)C(C)O4)[C@H](CC)[C@@H](C)O3)OC(=O)/C=C/C=C/[C@@H]2C)C[C@H]1O[C@@H]1C[C@@H](O)[C@H](O)C(C)O1 (stereo partly specified) | 0.125 | 0.413 | – | – | 0.138 | 0.557 | 0.0381 | 0.125 | 0.0949 | 0.34 | 0.112 | 0.344 | 0.073 | 0.171 | 0.0731 | 0.212 | 0.109 | 0.389 | 0.0495 | 0.149
COc1ccc(/C=C(/C(=O)N2CCN(c3ccccc3)CC2)c2cc(OC)c(OC)c(OC)c2)cc1N | 0.423 | > 100 | 0.301 | > 100 | 0.375 | > 100 | 3.53 | > 100 | – | – | 0.68 | > 100 | 0.429 | > 100 | 0.444 | > 100 | 0.366 | 13.3 | 0.22 | > 100
CC[C@H]1CN2CCc3cc(OC)c(OC)cc3C2C[C@@H]1CC1NCCc2cc(OC)c(OC)cc21 (stereo partly specified) | – | 0.0986 | 0.0186 | 0.204 | – | 0.18 | – | 0.0464 | – | 0.0773 | – | 0.0523 | – | 0.0815 | – | – | – | 0.0479 | – | –
CC(=O)Nc1ccccc1-c1nc2ccccc2nc1C | – | > 100 | – | > 100 | – | > 100 | – | > 100 | – | – | – | > 100 | – | > 100 | – | > 100 | – | > 100 | – | > 100
CC1=C(O)c2cn(C)cc2C(=O)C1=O | – | > 100 | – | > 100 | – | > 100 | – | > 100 | – | – | – | > 100 | – | > 100 | – | > 100 | – | > 100 | – | > 100
N#Cc1c(NC(=O)NCc2ccccc2)sc2c1CCCC2 | 0.425 | > 100 | 0.459 | > 100 | 2.29 | > 100 | 1.79 | 71 | – | – | 0.731 | > 100 | 1.51 | > 74.8 | 0.675 | > 100 | 0.392 | > 100 | 0.249 | 36
COC(=O)C1=Cc2cc(OC)c(OC)c(OC)c2[C@H](c2cc(OC)c(OC)c(OC)c2)C1C(=O)OC (stereo partly specified) | – | > 100 | – | > 100 | – | > 100 | – | 74.5 | – | – | – | > 100 | – | > 100 | – | > 100 | – | > 100 | – | > 100
C[C@]12CCc3nc(Nc4cccc(O)c4)sc3C1=CC[C@@H]1[C@@H]2CC[C@]2(C)/C(=N\NC(N)=S)CC[C@@H]12 | – | – | 1.97 | > 100 | 2.57 | 10.9 | 2.02 | 7.6 | 1.83 | 4.41 | 2.95 | 11.4 | 1.86 | 4.07 | 1.88 | 12.8 | 1.52 | 3.73 | 0.792 | 7.01
O=C(c1ccco1)c1nc2cc(C(F)(F)F)ccc2nc1C(F)(F)F | > 100 | > 100 | – | – | > 100 | > 100 | 27.2 | > 100 | 72 | > 100 | > 100 | > 100 | 71 | > 100 | > 100 | > 100 | > 100 | > 100 | 18.9 | 62.7
COc1ccc(OC(C)=O)c2c1CCC=CC2=O | – | 12.6 | – | 17.1 | – | 31.4 | – | 7.49 | – | – | – | 35.4 | – | 28 | – | 31.4 | – | 33.7 | – | 29.3
COc1cc(/C=C2\C[C@H]3[C@@H]4CC=C5C[C@@H](O)CC[C@]5(C)[C@H]4CC[C@]3(C)[C@H]2O)ccc1OCCN1CCCC1 | 9.69 | 19.8 | – | – | 13.5 | 27.2 | 8.26 | 17.1 | 19.9 | > 50 | 10.9 | 21.6 | 9.67 | 20.8 | 11.8 | 31.3 | 13.2 | > 50 | – | –
O=C1/C(=N\O)c2ccccc2S1(=O)=O | – | > 100 | – | > 100 | – | > 100 | – | > 100 | – | – | – | > 100 | – | > 100 | – | > 100 | – | > 100 | – | > 100
CCN(CC)CC(C)(C)C(=O)/C=C/c1cccc(/C=C/C(=O)C(C)(C)CN(CC)CC)c1 | – | 1.77 | – | 11.6 | – | 1.47 | – | 1.68 | – | – | – | 2.67 | – | 5.14 | – | 3.89 | – | 1.08 | – | 1.19
